Literature values as cited in patent US20110312981A1, “PREDICTIVE MARKER FOR EGFR INHIBITOR TREATMENT” (priority 2007, published 2011).

Key:
[1] = patients with cancer receiving the 150 mg/day dose
[2] = system: NSCLC patients for whom standard therapy for advanced disease has failed; settings: single agent, versus placebo, BR.21
patients with NSCLC = settings: second line after cisplatin-based first-line regimens failed; ECOG 0, 1 or 2; versus best supportive care
NSCLC = settings: second line therapy of NSCLC

Structure (SMILES): C#Cc1cccc(Nc2ncnc3cc(OCCOC)c(OCCOC)cc23)c1 [Tarceva, erlotinib]
- drug levels in plasma [1]: > 500 ng/mL
- survival [2]: significantly prolongs and improves the survival

Structure (SMILES): CC(=O)O[C@@]12CO[C@@H]1C[C@H](O)[C@@]1(C)C(=O)[C@H](O)C3=C(C)[C@@H](OC(=O)[C@H](O)[C@@H](NC(=O)OC(C)(C)C)c4ccccc4)C[C@@](O)([C@@H](OC(=O)c4ccccc4)[C@H]21)C3(C)C [docetaxel]
- survival (patients with NSCLC): improved survival

Structure (SMILES): Nc1nc2[nH]cc(CCc3ccc(C(=O)N[C@@H](CCC(=O)O)C(=O)O)cc3)c2c(=O)[nH]1 [pemetrexed]
- efficacy compared with docetaxel (NSCLC): clinically equivalent efficacy
- side effects compared with docetaxel (NSCLC): significantly fewer side effects
